Results taken from PubChem BioAssay (NCI).
Where “and” joins values, the source holds several entries; their conditions need not be identical. Equal values may be shown once.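 Five concentrations, 48 hours, 96-well plates. Abbreviation: GI50, concentration required for 50% inhibition of growth. TGI: concentration producing complete growth inhibition.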

Assays:
Experiment in all cases: growth of human tumour cells (NCI), 48 h
[1] = system: HOP-62 NSCLC
[2] = system: LOX IMVI melanoma
[3] = system: MDA-MB-231 breast
[4] = system: MDA-MB-435
[5] = system: NCI/ADR-RES ovarian
[6] = system: RXF 393 renal
[7] = system: SF-539 CNS
[8] = system: TK-10 renal
[9] = system: UACC-257 melanoma
[10] = system: UO-31 renal

SMILES	TGI [1]	TGI [2]	TGI [3]	TGI [4]	TGI [5]	TGI [6]	TGI [7]	TGI [8]	TGI [9]	TGI [10]	GI50 [1]	GI50 [2]	GI50 [3]	GI50 [5]	GI50 [7]
c1ccc2c(c1)Cn1c-2nc2ccccc21	> 100 µM	> 100 µM	> 100 µM	> 100 µM	> 100 µM	> 100 µM	> 100 µM	> 100 µM	> 100 µM	23 µM	–	–	–	–	–
COP(=O)(OC)C1=c2c(C)noc2=C2C=COC2C1=O (stereo not given)	> 100 µM	> 100 µM	> 100 µM	> 100 µM	> 100 µM	> 100 µM	> 100 µM	> 100 µM	> 100 µM	> 100 µM	–	–	–	–	–
CC(=O)Nc1nc(NC(C)=O)c2[nH]c(CO)nc2n1	> 100 µM	> 100 µM	> 100 µM	> 100 µM	> 100 µM	> 100 µM	> 100 µM	> 100 µM	> 100 µM	> 100 µM	–	–	–	–	–
[N-]=[N+]=NC(c1ccccc1)(c1ccccc1)c1ccccc1	42.2 µM	45.3 µM	31.2 µM	44 µM	34.1 µM	32.9 µM	31 µM	32.4 µM	31.4 µM	30 µM	–	–	–	–	–
C(=C(c1ccc(OC2CCCCO2)cc1)c1ccc(OC2CCCCO2)cc1)c1ccccc1 (stereo not given)	2.3 µM	1.14 µM	1.52 µM	1.7 µM	2.92 µM	2.25 µM	3.24 µM	2.35 µM	1.66 µM	2.26 µM	–	–	–	–	–
Nc1nccc(-c2c[nH]c3cc(Br)ccc23)n1	> 100 µM	53.4 µM	> 100 µM	80.4 µM	> 100 µM	49.3 µM	> 100 µM	59 µM	86.7 µM	39 µM	–	–	–	–	–
CCOC(=O)N1CCN(Cc2cc(=O)n3ccc(C)cc3n2)CC1	> 100 µM	> 100 µM	> 100 µM	> 100 µM	> 100 µM	> 100 µM	> 100 µM	> 100 µM	> 100 µM	> 100 µM	–	–	–	–	–
Nc1nc(-c2ccccc2)nc2oc(-c3cccs3)nc12	> 100 µM	> 100 µM	> 100 µM	> 100 µM	> 100 µM	> 100 µM	> 100 µM	> 100 µM	> 100 µM	> 100 µM	–	–	–	–	–
Cc1oc2c(cc(O)c3cc(O)ccc32)c2cccc1-2	> 100 µM	> 100 µM	> 100 µM	> 100 µM	> 100 µM	> 100 µM	> 100 µM	> 100 µM	> 100 µM	> 100 µM	–	–	–	–	–
COc1ccc(C(=C2C=CC=C2)c2ccc(OC)cc2)cc1	> 100 µM	33.7 µM	34.8 µM	> 100 µM	> 100 µM	61.7 µM	29.6 µM	> 100 µM	> 100 µM	> 100 µM	–	–	–	–	–
CCCCOC(=O)Nc1ccc(S(=O)(=O)Nc2ccccc2Cl)cc1	37.7 µM	34.7 µM	42 µM	36 µM	43.4 µM	55.9 µM	32.7 µM	46.6 µM	98.4 µM	80 µM	–	–	–	–	–
O=C(/C=C/c1ccc2c(c1)OCO2)c1ccc(O)cc1	66.1 µM	24.8 µM	31.5 µM	34.1 µM	3.52 µM	29.6 µM	32.5 µM	33.1 µM	28.8 µM	26.2 µM	–	–	–	–	–
CC(C)=CCC[C@@H](C)c1c(O)c(O)c(C)c2nccnc12	> 77.9 µM	> 100 µM	> 100 µM	> 100 µM	17.7 µM	> 89.1 µM	60.2 µM	> 100 µM	> 100 µM	45.9 µM	–	–	–	–	–
C[C@]12CCC3C4=C(CCC3C1CCC2=O)C(=O)[C@H]1O[C@H]1C4=O (stereo not given in full)	12.8 µM	5.18 µM	3.64 µM	24.9 µM	17.3 µM	3.18 µM	5.38 µM	10.8 µM	34.1 µM	5.1 µM	–	–	–	–	–
Nc1nc2c(c(-c3cccc(Cl)c3)n1)COC/C2=C\c1cccc(Cl)c1	> 100 µM	> 100 µM	> 100 µM	> 100 µM	> 100 µM	> 100 µM	> 100 µM	> 100 µM	> 100 µM	76.3 µM	–	–	–	–	–
S=C(N/N=C(/c1ccccc1)c1ccccn1)N(Cc1ccccn1)Cc1ccccn1	3.17 µM	1.74 µM	2.72 µM	3.56 µM	1.44 µM	2.74 µM	3.45 µM	1.58 µM	2.42 µM	1.65 µM	–	–	–	–	–
Cc1ccc(-c2csc(=Nc3ccccc3)n2NC(=O)c2ccncc2)cc1	> 100 µM	> 100 µM	> 100 µM	> 100 µM	> 90.5 µM	> 100 µM	> 100 µM	> 100 µM	> 100 µM	> 100 µM	–	–	–	–	–
Cc1cc(Nc2ccc(S(=O)(=O)O)c3cc(S(=O)(=O)O)cc(S(=O)(=O)O)c23)c2ccccc2n1	> 100 µM	> 100 µM	> 100 µM	> 100 µM	> 100 µM	> 100 µM	> 100 µM	> 100 µM	> 100 µM	> 100 µM	–	–	–	–	–
NC1(c2cc3ccccc3s2)CCCC1	> 100 µM	> 100 µM	> 100 µM	> 100 µM	> 100 µM	> 100 µM	45.3 µM	85.7 µM	81.2 µM	> 100 µM	–	–	–	–	–
Cc1ccccc1C(=N)c1ccccc1Cc1cccc2ccccc12	43.5 µM	31.9 µM	> 100 µM	52.9 µM	88.6 µM	20.3 µM	35.4 µM	> 100 µM	> 100 µM	> 100 µM	–	–	–	–	–
Cc1cc(-c2nc3ccc(F)cc3s2)ccc1NC(=O)[C@H](C)N	24.5 µM	3.99 µM	22.6 µM	5.82 µM	28.5 µM	21.7 µM	14.9 µM	5.11 µM	11.8 µM	14 µM	–	–	–	–	–
Cc1ccccc1OC(C)C(=O)NN1C(=O)CSC1c1ccccc1 (stereo not given)	> 100 µM	> 100 µM	> 100 µM	> 100 µM	> 100 µM	> 100 µM	> 100 µM	> 100 µM	> 100 µM	> 100 µM	–	–	–	–	–
Cc1ccc(-c2cc(-c3ccco3)c(C#N)c(=S)n2C2OC(CO)C(O)C(O)C2O)cc1 (stereo not given)	54.1 µM and > 100 µM	38.4 µM and > 100 µM	35.4 µM and 88.1 µM	> 100 µM	> 100 µM	45.4 µM and 45.3 µM	28 µM and > 100 µM	> 100 µM	> 100 µM	52 µM and > 100 µM	6.31 µM and 28 µM	8.19 µM and 43.1 µM	8.83 µM and 24 µM	33.8 µM and > 100 µM	11.5 µM and 37.2 µM
CC(=O)Oc1cccc2c1C(=O)CCCC2	> 100 µM	> 100 µM	> 100 µM	> 100 µM	> 100 µM	> 100 µM	> 100 µM	> 100 µM	> 100 µM	> 100 µM	–	–	–	–	–
CCC(=O)NC(Nc1cc(C)on1)(C(F)(F)F)C(F)(F)F	> 100 µM	> 100 µM	> 100 µM	> 100 µM	> 100 µM	> 100 µM	> 100 µM	> 100 µM	> 100 µM	> 100 µM	–	–	–	–	–
N#CC(NCc1cccc(CNC(C#N)c2ccccc2)c1)c1ccccc1 (stereo not given)	> 100 µM	28.9 µM	74.2 µM	> 100 µM	> 100 µM	> 100 µM	26.1 µM	> 100 µM	> 100 µM	> 100 µM	–	–	–	–	–
Cc1cc(C)nc(NS(=O)(=O)c2ccc(NC(=O)c3ccc4nc5ccccc5c(Nc5ccc(S(N)(=O)=O)cc5)c4c3)cc2)n1	> 100 µM	> 100 µM	> 100 µM	> 100 µM	> 100 µM	> 100 µM	> 100 µM	> 100 µM	> 100 µM	> 100 µM	–	–	–	–	–
Cc1ccnc(NS(=O)(=O)c2ccc(N=[N+]=[N-])cc2)n1	> 100 µM	> 100 µM	> 100 µM	> 100 µM	> 100 µM	> 100 µM	> 100 µM	> 100 µM	> 100 µM	> 100 µM	–	–	–	–	–
COc1cc(S(=O)(=O)Nc2nc(-c3ccc(N4C(=O)C(CC(=O)O)SC4c4cccs4)cc3)cs2)ccc1Cl (stereo not given)	> 100 µM	39.3 µM	> 100 µM	> 100 µM	76.6 µM	32.5 µM	> 100 µM	> 100 µM	> 100 µM	45.2 µM	–	–	–	–	–
